# From ChEMBL document CHEMBL1133206, “Antifungal rapamycin analogues with reduced immunosuppressive activity” (Bioorg Med Chem Lett, 2000)
# Tests used:
# [1] = tested on: Candida tropicalis; test: In vitro antifungal activity against Candida tropicalis (CT 750); type: functional
# [2] = tested on: Candida albicans; test: In vitro antifungal activity against Candida albicans (CA 62376); Weak; type: functional, organism-based
# [3] = tested on: Candida albicans; test: In vitro for antifungal activity against Candida albicans (CA 579a); type: functional
# [4] = tested on: Candida albicans; test: In vitro antifungal activity against Candida albicans (CA 442); Weak; type: functional, organism-based
# [5] = tested on: Candida albicans; test: In vitro antifungal activity against […] (CA 34140); Not affected.; type: functional
# [6] = tested on: Candida albicans; test: In vitro antifungal activity against Candida albicans (CA 38247); Weak; type: functional, organism-based
# [7] = tested on: Pichia kudriavzevii; test: In vitro antifungal activity against Candida krusei (CK 28838); type: functional
# [8] = tested on: Candida albicans; test: In vitro antifungal activity against Candida albicans (CA 10231); type: functional
# [9] = tested on: Aspergillus niger; test: In vitro antifungal activity at a minimum inhibitory concentration (~100 ug/mL) against Aspergillus niger; Not affected; type: functional; details: Aspergillus niger; read-out: MIC
# [10] = organism: Homo sapiens; test: Inhibitory activity against human concanavalin-A proliferation assay; type: functional
# [11] = tested on: Nakaseomyces glabratus; test: In vitro antifungal activity against Torulopsis glabrata (TG 15545); type: functional
MIC [1],MIC [2],MIC [3],MIC [4],MIC [5],MIC [6],MIC [7],MIC [8],MIC [9],MIC [11],Structure (SMILES),IC50 [10]
3.12 µg/mL,Weak,12.5 µg/mL,Weak,~100 µg/mL,Weak,0.78 µg/mL,3.12 µg/mL,~100 µg/mL,0.78 µg/mL,CO[C@@H]1C[C@H](C[C@@H](C)[C@@H]2CC(=O)[C@H](C)/C=C(\C)[C@@H](O)[C@@H](OC)C(=O)[C@H](C)C[C@H](C)/C=C/C=C/C=C(\C)[C@@H](N(O)C(=O)OCC(C)C)C[C@@H]3CC[C@@H](C)[C@@](O)(O3)C(=O)C(=O)N3CCCC[C@H]3C(=O)O2)CC[C@H]1O,760 nM
25 µg/mL,Weak,12.5 µg/mL,Weak,~100 µg/mL,Weak,0.78 µg/mL,6.25 µg/mL,~100 µg/mL,0.78 µg/mL,CO[C@@H]1C[C@H](C[C@@H](C)[C@@H]2CC(=O)[C@H](C)/C=C(\C)[C@@H](O)[C@@H](OC)C(=O)[C@H](C)C[C@H](C)/C=C/C=C/C=C(\C)[C@@H](N(O)C(=O)OC(C)C)C[C@@H]3CC[C@@H](C)[C@@](O)(O3)C(=O)C(=O)N3CCCC[C@H]3C(=O)O2)CC[C@H]1O,820 nM
6.25 µg/mL,Weak,12.5 µg/mL,Weak,~100 µg/mL,Weak,0.78 µg/mL,12.5 µg/mL,~100 µg/mL,1.56 µg/mL,CCCOC(=O)N(O)[C@H]1C[C@@H]2CC[C@@H](C)[C@@](O)(O2)C(=O)C(=O)N2CCCC[C@H]2C(=O)O[C@H]([C@H](C)C[C@@H]2CC[C@@H](O)[C@H](OC)C2)CC(=O)[C@H](C)/C=C(\C)[C@@H](O)[C@@H](OC)C(=O)[C@H](C)C[C@H](C)/C=C/C=C/C=C/1C,900 nM
6.25 µg/mL,Weak,1.56 µg/mL,Weak,~100 µg/mL,Weak,1.56 µg/mL,1.56 µg/mL,~100 µg/mL,1.56 µg/mL,CO[C@@H]1C[C@H](C[C@@H](C)[C@@H]2CC(=O)[C@H](C)/C=C(\C)[C@@H](O)[C@@H](OC)C(=O)[C@H](C)C[C@H](C)/C=C/C=C/C=C(\C)[C@H](N(O)C(=O)N3CCCCC3)C[C@@H]3CC[C@@H](C)[C@@](O)(O3)C(=O)C(=O)N3CCCC[C@H]3C(=O)O2)CC[C@H]1O,786 nM
50 µg/mL,Weak,> 100 µg/mL,Weak,~100 µg/mL,Weak,3.12 µg/mL,> 100 µg/mL,~100 µg/mL,3.12 µg/mL,CO[C@@H]1C[C@H](C[C@@H](C)[C@@H]2CC(=O)[C@H](C)/C=C(\C)[C@@H](O)[C@@H](OC)C(=O)[C@H](C)C[C@H](C)/C=C/C=C/C=C(\C)[C@@H](N(OC)C(=O)N(C)C)C[C@@H]3CC[C@@H](C)[C@@](O)(O3)C(=O)C(=O)N3CCCC[C@H]3C(=O)O2)CC[C@H]1O,3610 nM
12.5 µg/mL,Weak,12.5 µg/mL,Weak,~100 µg/mL,Weak,1.56 µg/mL,12.5 µg/mL,~100 µg/mL,1.56 µg/mL,CCCCOC(=O)N(O)[C@H]1C[C@@H]2CC[C@@H](C)[C@@](O)(O2)C(=O)C(=O)N2CCCC[C@H]2C(=O)O[C@H]([C@H](C)C[C@@H]2CC[C@@H](O)[C@H](OC)C2)CC(=O)[C@H](C)/C=C(\C)[C@@H](O)[C@@H](OC)C(=O)[C@H](C)C[C@H](C)/C=C/C=C/C=C/1C,523 nM
